# Measured values taken from patent publication US20230348418A1, “ISOINDOLINONE COMPOUNDS” (Monte Rosa Therapeutics, Inc., priority 2021, published 2023).
# Columns and labels:
# ABC-1 = experiment: viability of NSCLC cell line, high N-Myc (FIG. 2A); type: cell-based; conditions: ABC-1, high N-Myc; compared to low N-Myc EBC-1 and NCI-H2023
# Description: (§1) GSPT1 was degraded by compound 10 after six hours of treatment in high N-Myc NCI-H1155 and ABC-1 cells with a DC50 of 3 nM and 22 nM, respectively (x-axys represents […]M concentration of compound 10; y-axis represents the viability in %).
# GSPT1 = biological target: T1, GSPT1 (Homo sapiens, UniProt P15170); experiment: GSPT1 degradation in tumors of treated mice (FIG. 3B); type: in vivo, mouse; conditions: all three dose levels (1 mg/kg, 3 mg/kg, 6 mg/kg), compared to vehicle control
# T1 construct: GSPT1 levels in tumors were determined by western blotting 6 hours after the third dose; from tissue; host or cells: NCI-H1155 (ATCC CRL-5818) xenograft tumours in female BALB/c nude mice
# T1 sequence (P15170 whole entry): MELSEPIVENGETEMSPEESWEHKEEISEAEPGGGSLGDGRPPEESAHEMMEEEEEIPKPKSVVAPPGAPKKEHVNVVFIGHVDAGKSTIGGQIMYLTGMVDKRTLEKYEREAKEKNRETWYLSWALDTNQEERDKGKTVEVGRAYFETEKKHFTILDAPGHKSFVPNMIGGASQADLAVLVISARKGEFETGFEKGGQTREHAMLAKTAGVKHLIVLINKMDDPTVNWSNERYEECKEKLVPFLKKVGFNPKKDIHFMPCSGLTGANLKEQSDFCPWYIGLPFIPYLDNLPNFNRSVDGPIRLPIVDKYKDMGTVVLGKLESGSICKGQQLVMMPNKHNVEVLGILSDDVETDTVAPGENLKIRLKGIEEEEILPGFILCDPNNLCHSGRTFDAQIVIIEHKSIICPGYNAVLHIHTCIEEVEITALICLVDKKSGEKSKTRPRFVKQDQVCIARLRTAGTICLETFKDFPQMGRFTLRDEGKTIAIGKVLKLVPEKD
# T1 sequence (Q96SW2 whole entry, further chain): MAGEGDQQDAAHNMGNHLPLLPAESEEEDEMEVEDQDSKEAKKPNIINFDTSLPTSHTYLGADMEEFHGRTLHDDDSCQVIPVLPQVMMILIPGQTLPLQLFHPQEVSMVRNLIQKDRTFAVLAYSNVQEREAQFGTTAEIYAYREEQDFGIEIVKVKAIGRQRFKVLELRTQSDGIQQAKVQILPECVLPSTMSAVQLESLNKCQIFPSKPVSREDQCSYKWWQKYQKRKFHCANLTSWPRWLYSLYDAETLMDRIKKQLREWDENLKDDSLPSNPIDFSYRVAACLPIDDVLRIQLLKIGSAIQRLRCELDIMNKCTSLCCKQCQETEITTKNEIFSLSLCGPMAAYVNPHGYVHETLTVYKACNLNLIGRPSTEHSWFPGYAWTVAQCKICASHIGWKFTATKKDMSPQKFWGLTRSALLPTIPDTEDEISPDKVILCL
# T1 sequence (Q16531 2-1140 partner limits assumed): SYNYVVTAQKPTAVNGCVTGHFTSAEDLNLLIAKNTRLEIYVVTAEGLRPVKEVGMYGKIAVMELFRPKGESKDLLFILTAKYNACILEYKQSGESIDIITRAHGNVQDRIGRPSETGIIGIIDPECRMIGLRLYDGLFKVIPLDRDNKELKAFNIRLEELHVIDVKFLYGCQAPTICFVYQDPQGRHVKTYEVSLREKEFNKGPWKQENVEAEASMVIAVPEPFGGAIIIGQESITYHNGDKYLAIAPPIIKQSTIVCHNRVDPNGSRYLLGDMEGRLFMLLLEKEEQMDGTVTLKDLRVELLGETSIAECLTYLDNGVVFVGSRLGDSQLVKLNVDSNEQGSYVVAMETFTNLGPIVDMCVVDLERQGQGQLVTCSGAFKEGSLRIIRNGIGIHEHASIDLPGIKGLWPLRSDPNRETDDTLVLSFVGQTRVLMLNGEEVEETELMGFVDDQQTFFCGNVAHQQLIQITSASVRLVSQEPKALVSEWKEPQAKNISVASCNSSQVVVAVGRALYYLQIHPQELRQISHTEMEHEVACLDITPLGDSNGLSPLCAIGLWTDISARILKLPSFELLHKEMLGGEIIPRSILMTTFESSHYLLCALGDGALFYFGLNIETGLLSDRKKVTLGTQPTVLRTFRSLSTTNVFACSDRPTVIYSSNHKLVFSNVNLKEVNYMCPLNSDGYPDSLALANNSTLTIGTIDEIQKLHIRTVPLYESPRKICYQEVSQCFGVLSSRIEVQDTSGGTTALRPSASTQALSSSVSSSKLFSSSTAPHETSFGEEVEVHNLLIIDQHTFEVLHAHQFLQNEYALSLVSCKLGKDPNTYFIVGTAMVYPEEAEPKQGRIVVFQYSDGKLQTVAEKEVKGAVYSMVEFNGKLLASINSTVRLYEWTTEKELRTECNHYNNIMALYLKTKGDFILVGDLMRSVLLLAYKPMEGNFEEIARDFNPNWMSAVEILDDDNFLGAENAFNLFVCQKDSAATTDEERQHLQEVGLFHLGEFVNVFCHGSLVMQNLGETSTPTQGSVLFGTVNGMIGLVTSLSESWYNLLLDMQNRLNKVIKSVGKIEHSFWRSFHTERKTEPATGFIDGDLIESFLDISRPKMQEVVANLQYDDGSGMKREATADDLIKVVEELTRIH
# NCI-H526 = experiment: N-Myc-driven mouse xenograft model, human cell line NCI-H526 (FIG. 3D); type: in vivo
# NCI-H1155 = experiment: viability of NSCLC cell line, high N-Myc (FIG. 2A); type: cell-based, human; conditions: compared to low N-Myc EBC-1 and NCI-H2023
# Description: as §1
structure (smiles),measurement,setting,value
Cc1ccc(NC(=O)OCc2ccc3c(c2)C(=O)N(C2CCC(=O)NC2=O)C3)cc1Cl (stereo not shown) [Compound 10],sensitivity to treatment (viability in %),ABC-1,highly sensitive
same,degradation of GSPT1 in tumors,GSPT1,complete degradation
same,tumor size (tumor volume),"NCI-H526; 3 mg/kg once daily, PO",tumor size decreased and remained so until the end of the study
same,tumor size (tumor volume),"NCI-H526; 6 mg/kg PO, five days on and nine days off",tumor size decreased and remained so until the end of the study
same,body weight,"NCI-H526; oral administration, NCI-H526 xenograft",no body weight loss observed
same,tumor growth (tumor volume),"NCI-H526; oral administration, NCI-H526 xenograft, overall",tumor growth inhibition
same,sensitivity to treatment (viability in %),NCI-H1155,highly sensitive
